The values that follow come from patent US6576624B1, “Use of dopamine receptor antagonists in palliative tumor therapy” (Zentaris AG, priority 1996, dated 2003).

For data set [1] the following is noted: for Changes of body weight, Control AUC, day 7 / Changes of body weight, D-18506(4 × 68.1 mg/kg p.o.) AUC, day 7 / Changes of body weight, D-21266(4 × 46.4 mg/kg p.o.) AUC, day 7: AUC to day 7; for Changes of body weight, Control AUC, day 7 / Changes of body weight, Control AUC, day 11: asterisks = comparison with control group; for Changes of body weight, D-18506(4 × 68.1 mg/kg p.o.) AUC, day 7 / Changes of body weight, D-18506(4 × 68.1 mg/kg p.o.) AUC, day 11: compared with D-18506 alone (D-18506 4 × 68.1 mg/kg p.o. alone); for Changes of body weight, D-18506(4 × 68.1 mg/kg p.o.) AUC, day 7 / Changes of body weight, D-18506(4 × 68.1 mg/kg p.o.) AUC, day 11 / Changes of body weight, D-21266(4 × 46.4 mg/kg p.o.) AUC, day 7 / Changes of body weight, D-21266(4 × 46.4 mg/kg p.o.) AUC, day 11: same i.p. doses as c1; for Changes of body weight, Control AUC, day 11 / Changes of body weight, D-18506(4 × 68.1 mg/kg p.o.) AUC, day 11 / Changes of body weight, D-21266(4 × 46.4 mg/kg p.o.) AUC, day 11: AUC to day 11; for Changes of body weight, D-21266(4 × 46.4 mg/kg p.o.) AUC, day 7 / Changes of body weight, D-21266(4 × 46.4 mg/kg p.o.) AUC, day 11: compared with D-21266 alone (D-21266 4 × 46.4 mg/kg p.o. alone); for Effect on body weight development of animals treated with octadecyl(1,1-dimethylpiperidinio-4-yl)phosphate: simultaneous administration with D-21266, normal rats, FIGS. 7 and 8, Table 2.
Text: Comparative studies with respect to body weight changes in healthy and tumor-bearing rats were investigated after administration of miltefosine or octadecyl(1,1-dimethylpiperidinio-4-yl)phosphate alone and in combination with various appetite-stimulating compounds.

The test system of data set [2] is DMBA-induced breast tumor. Put plainly: Anti-tumor action on DMBA-induced breast tumor of rats. Format: in vivo, rat. As to conditions: rats with DMBA-induced breast tumor; FIGS. 11-12.
The conditions of data set [3]: cancer patients; Eur. J. Cancer 29A, 208-209, 1993; cited from earlier work.
[4] abbreviates: Table 1, rat, i.p. mg/kg: Domperidone 0.1, Pimozide 0.2, Metoclopramide 0.2, Cyproheptadine 2.5, combinations with D-18506 4 × 68.1 mg/kg p.o.
[5] abbreviates: Table 2, rat, i.p. mg/kg: Pimozide 0.1, Cyproheptadine 2.5, Metoclopramide 0.2, Domperidone 0.1, combinations with D-21266 4 × 46.4 mg/kg p.o.

Read-outs that look alike come from different tables or passages of the source. Marks after values point to notes of the source that are not given here.

Consider `CN1CCC(=C2c3ccccc3C=Cc3ccccc32)CC1` [Cyproheptadine, cyproheptadine], for which, in data set [1] (setting [4]), the “Changes of body weight, Control AUC, day 7” value (“Changes … Control AUC, day 7” below) was 0.8 and the “Changes of body weight, Control AUC, day 11” value (shortened to “Changes … Control AUC, day 11”) came out at 15.5. In addition, in data set [1] (Table 1, rat), the “Changes of body weight, D-18506(4 × 68.1 mg/kg p.o.) AUC, day 7” value is on record as 0.8 and the “Changes of body weight, D-18506(4 × 68.1 mg/kg p.o.) AUC, day 11” value is 15.5. Moreover, in data set [1] (setting [5]), the “Changes … Control AUC, day 7” value turned out to be 1.5 and the “Changes … Control AUC, day 11” value stood at 20.6. In addition, in data set [1] (Table 2, rat), the “Changes of body weight, D-21266(4 × 46.4 mg/kg p.o.) AUC, day 7” value is listed as 1.5 and the “Changes of body weight, D-21266(4 × 46.4 mg/kg p.o.) AUC, day 11” value was determined as 20.6. The “Effect on body weight development of animals treated with octadecyl(1,1-dimethylpiperidinio-4-yl)phosphate” value (from here on “Effect on body weight development”) in data set [1] was “no significant effect”.

Consider `CCN(CC)CCNC(=O)c1cc(Cl)c(N)cc1OC` [Metoclopramide, metoclopramide], for which, in data set [1] (setting [4]), the “Changes … Control AUC, day 7” value was found to be 11.5 and the “Changes … Control AUC, day 11” value was determined as 30.5. Further, in data set [1] (Table 1, rat), the “Changes of body weight, D-18506(4 × 68.1 mg/kg p.o.) AUC, day 7” value was 11.5** and the “Changes of body weight, D-18506(4 × 68.1 mg/kg p.o.) AUC, day 11” value is reported as 30.5**. For the same compound, in data set [1] (setting [5]), the “Changes … Control AUC, day 7” value was 19.2 and the “Changes … Control AUC, day 11” value was found to be 49.4. Further, in data set [1] (Table 2, rat), the “Changes of body weight, D-21266(4 × 46.4 mg/kg p.o.) AUC, day 7” value is reported as 19.2 and the “Changes of body weight, D-21266(4 × 46.4 mg/kg p.o.) AUC, day 11” value was determined as 49.4. In addition, the “Effect on body weight development” value in data set [1] is given as “no significant effect”. The “Effect on the loss of weight caused by miltefosine” value in data set [1] (simultaneous administration with miltefosine, healthy and tumor-bearing rats, domperidone or pimozide 5×0.1 mg/kg i.p.) was “does not lead to any positive effect”.

Regarding `O=c1[nH]c2ccccc2n1CCCN1CCC(n2c(=O)[nH]c3cc(Cl)ccc32)CC1` [Domperidone, domperidone], the “Effect on body weight development” value in data set [1] was “more than compensated”. Further, in data set [1] (tumor-bearing rats, FIGS. 9-10), the “Body weight development, alone and in combination with octadecyl(1,1-dimethylpiperidinio-4-yl)phosphate” value is “increase the body weight development”. In data set [2], the “Effect on anti-tumor action of octadecyl(1,1-dimethylpiperidinio-4-yl)phosphate” value is “without affecting the anti-tumor action”.

Regarding `CCCCCCCCCCCCCCCCCCOP(=O)([O-])OC1CC[N+](C)(C)CC1` [D-21266, octadecyl(1,1-dimethylpiperidinio-4-yl)phosphate], in data set [1] (Table 2, rat), the “Changes of body weight, D-21266(4 × 46.4 mg/kg p.o.) AUC, day 7” value was found to be 10.6 and the “Changes of body weight, D-21266(4 × 46.4 mg/kg p.o.) AUC, day 11” value worked out at 37.1. The “Body weight development after octadecyl(1,1-dimethylpiperidinio-4-yl)phosphate alone” value in data set [1] (rat, in vivo) is “increase in weight less than the control animals”.

With `O=c1[nH]c2ccccc2n1C1CCN(CCCC(c2ccc(F)cc2)c2ccc(F)cc2)CC1` [Pimozide, pimozide], in data set [1] (setting [4]), the “Changes … Control AUC, day 7” value is 30.4** and the “Changes … Control AUC, day 11” value is given as 69.8**. For the same compound, in data set [1] (Table 1, rat), the “Changes of body weight, D-18506(4 × 68.1 mg/kg p.o.) AUC, day 7” value is 30.4** and the “Changes of body weight, D-18506(4 × 68.1 mg/kg p.o.) AUC, day 11” value is listed as 69.8**. For the same compound, in data set [1] (setting [5]), the “Changes … Control AUC, day 7” value is 31.2** and the “Changes … Control AUC, day 11” value is recorded as 67.5**. In addition, in data set [1] (Table 2, rat), the “Changes of body weight, D-21266(4 × 46.4 mg/kg p.o.) AUC, day 7” value is listed as 31.2** and the “Changes of body weight, D-21266(4 × 46.4 mg/kg p.o.) AUC, day 11” value is listed as 67.5**.

As to `CCCCCCCCCCCCCCCCOP(=O)([O-])OCC[N+](C)(C)C` [D-18506, miltefosine], the “Side effects in patients treated with miltefosine” value in data set [3] is listed as “marked loss of body weight”. In data set [1] (Table 1, rat), the “Changes of body weight, D-18506(4 × 68.1 mg/kg p.o.) AUC, day 7” value is recorded as −17.9 and the “Changes of body weight, D-18506(4 × 68.1 mg/kg p.o.) AUC, day 11” value is −23.5. Also, the “Body weight change on administration of miltefosine alone” value in data set [1] (rat, in vivo) is reported as “clear loss of weight”.
